According to US8298993B2, “Herbicidal composition and method of use thereof” (Syngenta Crop Protection LLC, priority 2006, dated 2012):

What was measured:
[1] = test system: large crabgrass (Digitaria sanguinalis); assay: Glasshouse trial, control of large crabgrass, post-emergence application; assay type: in vivo
Method: A glasshouse trial was carried out. Large crabgrass seeds were sown into standard glasshouse potting mix (1:1 v/v Promix:Vero sand soil) contained in 10 cm square plastic pots. Treatments were replicated three times. Mesotrione (in the form Callisto® 480SE) was applied post-emergence to large crabgrass (Digitaria sanguinalis) at either 12 g ai/ha or 24 g ai/ha with or without s-metolachlor (in the form Dual Magnum®). When used, s-metolachlor was applied at a rate of 500 g ai/ha or 1000 g ai/ha. The adjuvant system was X-77 at 0.1% v/v in deionised water. 200 liters of herbicide/adjuvant system was used per hectare. General weed control was evaluated at 7 and 14 days after treatment (DAT). It is noted that all herbicides were applied at reduced field rates because herbicide effects are magnified in a glasshouse environment. Rates were chosen to give a 50 to 70% level of control with herbicides applied alone as this allows for detection of any synergistic effect when tank mixtures are used. […] The results were evaluated using the Colby formula. The expected result for (A+B) is (A+B)−(A×B/100) where A and B are the ‘observed’ results for A and B on their own.

[2] = test system: white clover (Trifolium repens); assay: Glasshouse trial, control of white clover, post-emergence application; assay type: in vivo; conditions: 16 DAT
Method: A glasshouse trial was carried out. White clover seeds were sown into standard glasshouse potting mix (1:1 v/v Promix:Vero sand soil) contained in 10 cm square plastic pots. Treatments were replicated three times. Mesotrione (in the form Callisto®480SE) was applied post-emergence to white clover (Trifolium repens) at either 50 g ai/ha or 100 g ai/ha with or without s-metolachlor (in the form Dual Magnum®). […] The adjuvant system was X-77 at 0.1% v/v in deionised water. 200 liters of herbicide/adjuvant system was used per hectare. General weed control was evaluated at 10 and 16 days after treatment (DAT). It is noted that all herbicides were applied at reduced field rates because herbicide effects are magnified in a glasshouse environment. Rates were chosen to give a 50 to 70% level of control with herbicides applied alone as this allows for detection of any synergistic effect when tank mixtures are used. […] The results were evaluated using the Colby formula. The expected result for (A+B) is (A+B)−(A×B/100) where A and B are the ‘observed’ results for A and B on their own.

large crabgrass = assay: Control of large crabgrass, pre-emergent application of the herbicides; assay type: in vivo, Digitaria sanguinalis; conditions: s-metolachlor 5 g ai/ha in the absence of mesotrione

Row | Molecule | control of large crabgrass, herbicide alone ([1]; mesotrione alone, post-emergence, 7 DAT) | control of white clover, herbicide alone ([2]; mesotrione alone at the lower rate (50 g ai/ha)) | control of large crabgrass, herbicide alone (large crabgrass) | control of large crabgrass, herbicide alone ([1]; first experiment, s-metolachlor on its own (500 or 1000 g ai/ha), post-emergence, 14 DAT) | control of large crabgrass, herbicide alone ([1]; repeat experiment, s-metolachlor 500 g ai/ha in the absence of mesotrione, 14DAT) | control of large crabgrass, herbicide alone ([1]; repeat experiment, s-metolachlor 1000 g ai/ha in the absence of mesotrione, 14DAT) | control of white clover, herbicide alone ([2]; s-metolachlor on its own at 500 g ai/ha)
1 | CS(=O)(=O)c1ccc(C(=O)C2C(=O)CCCC2=O)c([N+](=O)[O-])c1 [mesotrione, 2-(2′-nitro-4′-methylsulphonylbenzoyl)-1,3-cyclohexanedione] | relatively high | 32% |  |  |  |  | 
2 | s-metolachlor |  |  | 95% | no control | 7% | 7% | 3%
